Data: PubChem BioAssay (NCI)
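Where inhibition never reached the appropriate level, the endpoint shown equals the highest concentration tested. Otherwise, values were interpolated linearly from a five-concentration, 48-hour dose response in 96-well plates. TGI marks complete inhibition of growth.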

What was measured:
Assay in all cases: NCI-60 cell line screen, 48 h
[1] = system: SNB-75 CNS
[2] = system: DU-145 prostate
[3] = system: SW-620 colon
[4] = system: MDA-MB-231 breast
[5] = system: MDA-N
[6] = system: CAKI-1 renal
[7] = system: HOP-62 NSCLC
[8] = system: SR leukemia
[9] = system: NCI-H23 lung
[10] = system: MALME-3M melanoma
[11] = system: CCRF-CEM leukemia
[12] = system: OVCAR-8 ovarian
[13] = system: A498 renal
[14] = system: OVCAR-3 ovarian
[15] = system: HS 578T breast
[16] = system: SK-MEL-2 melanoma
[17] = system: HT29 colon
[18] = system: SNB-19 CNS
[19] = system: RPMI-8226 leukemia
[20] = system: HCT-116 colon
[21] = system: EKVX NSCLC
[22] = system: SK-MEL-5 melanoma
[23] = system: HCC-2998 colon
[24] = system: PC-3 prostate
[25] = system: HCT-15 colon
[26] = system: UACC-62 melanoma
[27] = system: HL-60(TB) leukemia
[28] = system: OVCAR-5 ovarian
[29] = system: IGROV1 ovarian
[30] = system: A549 NSCLC
[31] = system: OVCAR-4 ovarian
[32] = system: ACHN renal
[33] = system: RXF 393 renal
[34] = system: SF-295 CNS
[35] = system: MOLT-4 leukemia
[36] = system: SF-268 CNS
[37] = system: NCI-H460 lung
[38] = system: 786-0 renal
[39] = system: U251 CNS
[40] = system: SK-MEL-28 melanoma
[41] = system: UACC-257 melanoma
[42] = system: SK-OV-3 ovarian
[43] = system: SF-539 CNS
[44] = system: UO-31 renal
[45] = system: K-562 leukemia
[46] = system: HOP-92 NSCLC
[47] = system: MDA-MB-435
[48] = system: M14 melanoma
[49] = system: LOX IMVI melanoma
[50] = system: NCI/ADR-RES ovarian
[51] = system: NCI-H522 lung
[52] = system: T-47D breast
[53] = system: NCI-H226 lung
[54] = system: TK-10 renal
[55] = system: SN12C renal
[56] = system: KM12 colon
[57] = system: BT-549 breast
[58] = system: MCF7 breast
[59] = system: COLO 205 colon

OC(CC(O)(C(F)(F)F)C(F)(F)F)c1ccc(C(O)CC(O)(C(F)(F)F)C(F)(F)F)cc1 (stereo unspecified)
TGI [1]: 31.8 µM | TGI [2]: 28.3 µM | TGI [3]: 35.8 µM | TGI [4]: 28.7 µM | TGI [5]: 35.4 µM | TGI [6]: 27.3 µM | TGI [7]: 35 µM | TGI [8]: 40.2 µM | TGI [9]: 26.7 µM | TGI [10]: 27.6 µM | TGI [11]: 36.9 µM | TGI [12]: 29.5 µM | TGI [13]: 25.1 µM | TGI [14]: 18.2 µM | TGI [15]: 47.7 µM | TGI [16]: 38.4 µM | TGI [17]: 25.1 µM | TGI [18]: 30.9 µM | TGI [19]: 48.8 µM | TGI [20]: 24 µM | TGI [21]: 28 µM | TGI [22]: 27.3 µM | TGI [23]: 33.3 µM | TGI [24]: 32.5 µM | TGI [25]: 42.8 µM | TGI [26]: 25.2 µM | TGI [27]: 37.4 µM | TGI [28]: 31.1 µM | TGI [29]: 23.3 µM | TGI [30]: 28.6 µM | TGI [31]: 29.8 µM | TGI [32]: 27.6 µM | TGI [33]: 30.7 µM | TGI [34]: 32.5 µM | TGI [35]: 35.8 µM | TGI [36]: 28.9 µM | TGI [37]: 31.6 µM | TGI [38]: 34.9 µM | TGI [39]: 31.1 µM | TGI [40]: 30.6 µM | TGI [41]: 32.2 µM | TGI [42]: 31.9 µM | TGI [43]: 29.4 µM | TGI [44]: 23 µM | TGI [45]: 60.7 µM | TGI [46]: 25.9 µM | TGI [47]: 32.7 µM | TGI [48]: 29.9 µM | TGI [49]: 30.7 µM | TGI [50]: 29.6 µM | TGI [51]: 40.5 µM | TGI [52]: 31.3 µM

O=c1[nH]c(=S)c2cc3c(=S)[nH]c(=O)n(CCO)c3nc2n1CCO
TGI [1]: > 100 µM | TGI [3]: > 100 µM | TGI [4]: > 100 µM | TGI [5]: > 100 µM | TGI [6]: > 100 µM | TGI [7]: > 100 µM | TGI [53]: > 100 µM | TGI [8]: > 100 µM | TGI [9]: > 100 µM | TGI [10]: > 100 µM | TGI [11]: > 100 µM | TGI [12]: > 100 µM | TGI [13]: > 100 µM | TGI [14]: > 100 µM | TGI [54]: > 100 µM | TGI [16]: > 100 µM | TGI [18]: > 100 µM | TGI [19]: > 100 µM | TGI [20]: > 100 µM | TGI [21]: > 100 µM | TGI [22]: > 100 µM | TGI [23]: > 100 µM | TGI [24]: > 100 µM | TGI [55]: > 100 µM | TGI [25]: > 100 µM | TGI [28]: > 100 µM | TGI [29]: > 100 µM | TGI [30]: > 100 µM | TGI [31]: > 100 µM | TGI [32]: > 100 µM | TGI [33]: > 100 µM | TGI [34]: > 100 µM | TGI [35]: > 100 µM | TGI [56]: > 100 µM | TGI [57]: > 100 µM | TGI [58]: > 100 µM | TGI [36]: > 100 µM | TGI [37]: > 100 µM | TGI [38]: > 100 µM | TGI [39]: > 100 µM | TGI [40]: > 100 µM | TGI [41]: > 100 µM | TGI [42]: > 100 µM | TGI [43]: > 100 µM | TGI [59]: > 100 µM | TGI [44]: > 100 µM | TGI [45]: > 100 µM | TGI [46]: > 100 µM | TGI [47]: > 100 µM | TGI [48]: > 100 µM | TGI [49]: > 100 µM | TGI [50]: > 100 µM | TGI [51]: > 100 µM | TGI [52]: > 100 µM
